Data as given in publication PMC4383003, “Transfer hydrogenation catalysis in cells as a new approach to anticancer drug design” (Nature Communications, 2015).
Values joined by “and” are separate entries in the source; they are usually repeats but may differ in a detail not shown here. Identical values can stand only once.

Tests used:
[1] = pKa* of aqua adducts of the complexes; type: physicochemical; conditions: pKa value determined in deuterated solvent
Description: Table 1 pKa* values for aqua adducts of catalysts 1–4 (and 8 for comparison) and turnover frequencies for transfer hydrogenation of NAD^+ using formate. | column: pKa*

[2] = system: A2780 ovarian cancer cells; test: Cell viability on co-administration of Ru complexes (1/3 x IC50) with formate or acetate; type: cell-based, human; conditions: for Cell viability percentages / Cell viability: A2780, complex 1/3 x IC50, 24 h
Protocol: Cell viability assays were carried out with complexes 1–8 in A2780 ovarian cancer cells. These experiments were carried out as described above with the following modifications: a fixed concentration of each Ru complex equal to 1/3 × IC50 was used in co-administration with three different concentrations of sodium formate or sodium acetate (0.5, 1.0 and 2.0 mM). To prepare the stock solution of the drug, the complex was dissolved in 5% dimethylsulfoxide and diluted in a 1:1 mixture of 0.9% saline:cell culture medium. This stock was further diluted using RPMI-1640 until working concentrations were achieved. Separately, stock solutions of sodium formate or sodium acetate were prepared in saline. The complex and formate were added to each well independently, but within 5 min of each other.
Supplementary Table 7: Percent cell viability of A2780 ovarian cancer cells exposed to equipotent concentrations of ruthenium complexes 1-3 and 5-8 (1/3 x […]
The experiments included 48 h of pre-incubation and 72 h of drug recovery, both in drug-free medium at 310 K in a 5% CO2 humidified atmosphere. All the experiments were performed as duplicates of triplicates in independent experiments and the error bars were calculated as the standard deviation from the mean.
Supplementary Table 11: Cell viability (%) of A2780 ovarian cancer cells exposed […]
administered with different concentrations of sodium acetate (0, 0.5, 1 and 2 mM).
The experiments involved 48 h of pre-incubation and 72 h of drug recovery, both in […]
Cell viability percentages (%)
Complex Acetate concentration (mM)

[3] = system: A2780 ovarian cancer cells; test: IC50 of complex 2 on co-administration with formate; type: cell-based, human; conditions: A2780, formate 0 mM
Protocol: The antiproliferative activity towards A2780 ovarian cancer cells of complex 2 when co-administered with 2 mM sodium formate was determined. These experiments were performed as described above, using a fixed concentration of formate and variable concentrations of the Ru complex. The SRB assay was used to determine cell viability. IC50 values were determined as duplicates of triplicates in two independent sets of experiments and their s.d. were calculated.
Supplementary Table 8: Antiproliferative activity of complex 2 in A2780 ovarian cancer cells when co-administered with different concentrations of sodium formate (0, 0.5, 1 and 2 mM) and amount of Ru accumulated by the cells. All the experiments were performed as duplicates of triplicates in independent experiments and the error bars were calculated as the standard deviation from the mean.
Formate concentration (mM)

[4] = system: A2780 ovarian cancer cells; test: Ruthenium accumulation in cancer cells (ICP-MS); type: cell-based, human
Protocol: Briefly, 1.5 × 10^6 cells per well were seeded on a six-well plate. […] After this time, cells were washed, treated with trypsin-EDTA, counted and cell pellets were collected. Each pellet was digested overnight in concentrated nitric acid (73%) at 353 K; the resulting solutions were diluted using double-distilled water to give a final concentration of 5% HNO3 and the amount of Ru taken up by the cells was determined by ICP–MS. […]
Supplementary Table 3: Antiproliferative activity of complexes 1-8 in A2780 ovarian cancer cells and their cellular accumulation (expressed as ng Ru per million cells).
The latter experiments were carried out using equipotent concentrations of the […]
experiments were performed as duplicates of triplicates in independent experiments and the error bars were calculated as the standard deviation from the mean. […]

A2780 cells [5] = test: ROS determination by flow cytometry; type: cell-based, human; conditions: A2780, complex 2 and 2 mM sodium formate, 24 h
Protocol: Flow cytometry analysis of total induction of ROS in A2780 cells caused by exposure to complex 2 and sodium formate was carried out using the Total ROS detection kit (Enzo Life Sciences) according to the supplier’s instructions. Briefly, 1.0 × 10^6 A2780 cells per well were seeded in a six-well plate. […] After 24 h of drug exposure, supernatants were removed by suction and cells were washed and harvested. Staining was achieved by resuspending the cell pellets in buffer containing the green fluorescent reagent. Cells were analysed in a Becton Dickinson FACScan Flow Cytometer using Ex/Em: 490/525 nm for the oxidative stress detection. Data were processed using Flowjo software. The experiment included cells treated with pyocyanin for 30 min as positive control.

A2780 cells [6] = test: Induction of apoptosis (Annexin V-FITC/PI flow cytometry); type: cell-based, human; conditions: A2780, complex 2 and 2 mM sodium formate, 24 h
Protocol: Flow cytometry analysis of apoptosis in A2780 cells caused by exposure to complex 2 and sodium formate were carried out using the Annexin V-FITC Apoptosis Detection Kit (Sigma Aldrich) according to the manufacturer’s instructions. […] Cells were harvested using trypsin and stained using PI/Annexin V-FITC. After staining, cell pellets were analysed in a Becton Dickinson FACScan Flow Cytometer. For positive-apoptosis controls, A2780 cells were exposed for 2 h to staurosporine (1 μg ml^−1). Cells for apoptosis studies were used with no previous fixing procedure as to avoid nonspecific binding of the annexin V-FITC conjugate.

A2780 cells [7] = test: Mitochondrial membrane assay (JC-10 flow cytometry); type: cell-based, human; conditions: A2780, complex 2 and sodium formate, 24 h
Protocol: Analysis of the changes of mitochondrial potential in A2780 cells after exposure to complex 2 and sodium formate was carried out using the Abcam, JC-10 Mitochondrial Membrane Potential Assay kit according to the manufacturer’s instructions. Briefly, 1.0 × 10^6 cells were seeded in six-well plates and left to incubate for 24 h in drug-free medium at 310 K in a humidified atmosphere. […] Supernatants were removed by suction and each well was washed with PBS before detaching the cells using trypsin-EDTA. Staining of the samples was done in flow cytometry tubes protected from light, incubating for 30 min at room temperature. Samples were immediately analysed on a Beckton Dickinson FAC Scan with fluorescence detection. Data were processed using FlowJo software. This experiment included carbonyl cyanide m-chlorophenyl hydrazine as positive control.

## Cc1ccc(C(C)C)cc1.Cc1ccc(S(=O)(=O)[N-]CCN)cc1.[Cl-].[Ru+2] [Complex 2, [(p-cym)Ru(TsEn)Cl]]
[1]
  pKa*: 9.78±0.06
[2]; acetate 0 mM
  Cell viability percentages: 70.8 ± 0.6%
[2]; acetate 0.5 mM
  Cell viability percentages: 69.4 ± 0.9%
[2]; acetate 1 mM
  Cell viability percentages: 68.9 ± 0.3%
[2]; acetate 2 mM
  Cell viability percentages: 67.1 ± 0.6%
[2]; formate 0.5 mM
  Cell viability: 49.7 ± 0.8%
[2]; formate 1 mM
  Cell viability: 38.2 ± 0.6%
[2]; formate 2 mM
  Cell viability: 1.5 ± 0.1% and ~1%
[2]; A2780, formate increased from 0 to 2 mM
  decrease in cell survival: ca. 50 fold
[3]
  IC50: 13.6 ± 0.6 µM
[4]; A2780, 1/3 x IC50, 24 h drug exposure, no recovery time
  Cell Ru: 0.15 ± 0.04 ng x 106 cells
[4]; A2780, 24 h, 1/3 x IC50
  Cell accum.: 0.15 ng Ru/10^6 cells
[4]; A2780, complex 2 4.5 μM
  dependence of cellular accumulation of ruthenium on amount of formate added: no significant dependence
[4]; A2780, complex 2, formate 0 mM
  Cell Ru: 0.15 ± 0.03 ng x 106 cells
[4]; A2780, complex 2, formate 0.5 mM
  Cell Ru: 0.145 ± 0.009 ng x 106 cells
[4]; A2780, complex 2, formate 1 mM
  Cell Ru: 0.129 ± 0.005 ng x 106 cells
[4]; A2780, complex 2, formate 2 mM
  Cell Ru: 0.13 ± 0.02 ng x 106 cells
A2780 cells [5]
  levels of reactive oxygen species (ROS) in treated cells: comparable to those arising from treatment with N-acetyl-L-cysteine
A2780 cells [6]
  induction of apoptosis: no population of cells in either of these two stages of apoptosis was detected
A2780 cells [7]
  changes in mitochondrial membrane potential: No changes in the mitochondrial membrane potential were observed
